Values joined by “and” are separate entries in the source; they are usually repeats but may differ in a detail not shown here. Identical values can stand only once. *1 amine or outer side, *2 acyl side, *3 side chain or, on linkers, in order; H or OH if unused. Where a SMILES comes first, the peptide text is derived from it. Side-chain parts run from the residue outwards. The star is where a group is joined. NH(CH2CH2O)2(CH2)6Cl = ClCCCCCCOCCOCCN*; Suc = O=C(CCC(=O)[*:2])[*:1]
Key:
[1] = PAMPA; for −log Pe: pH 7.4
Experimental: (§1) 5 Parallel Artificial Membrane Permeability Assay (PAMPA)
(§2) PAMPA analysis was conducted following a procedure reported by Lokey and coworkers. 9 Each measurement was conducted at room temperature in an insulated polystyrene box to maintain a constant internal temperature. Measurements were taken in triplicate, and the reported permeability values are the average value over the three runs. Carbamaz epine was included in the stock solution of each cyclic peptide to verify the integrity of the membrane as an internal standard.
(§3) Preparation of stock solution for donor well: Stock solutions were prepared by dissolving the […]
cyclic peptide (0.5 mM) and carbamazepine (0.5 mM) (as an internal standard) in DMSO at a gross […]
concentration of 1 mM. 10 μL of this stock solution was added to 990 μL PBS buffer (pH 7.4) to […]
give a 1 mL solution (10 μM, 1% DMSO v/v) for addition to the donor plate wells.
Preparation of acceptor plate: A stock solution of 5% DMSO in PBS buffer was prepared, and […]
300μL of this solution was added to each of the acceptor wells (96-well Teflon acceptor plate […]
Preparation of donor plate: 100 mg of lethicin (90%, soybean) was suspended in n -dodecane (10 […]
mL) and sonicated to give a homogenous, clear solution. 5 μL of this solution was carefully applied […]
to the membrane in the 96-well donor plate (with 0.45 μm hydrophobic Immobilon-P membrane […]
supports (Millipore MAIPNTR10)) (with care, without touching the membrane). Shortly after (~5 - […]
15 min), 150 μL of the 10 μM stock solution of cyclic peptide and carbamazepine (prepared as […]
above) were added to the donor well. The donor plate was placed on top of the acceptor wells and […]

[2] = in vitro
Experimental: (1 picture or pasted object on this page, not shown here) […]
were taken at each time point and quenched in 160 μL of ice-cold methanol. Samples were spun down for 10 min at 21,000 g prior to analysis by reverse phase analytical HPLC on a C18 column.
Chromatogram peaks were integrated to measure amount of peptide remaining at each time point.
Peak volumes for each timepoint were normalized to the zero-hour timepoint to determine percentage of peptide remaining. Data presented are the average of three biological replicates performed with different lysates on different days.
as §1, §2, §3

[3] = test system: HeLa cells stably expressing the HaloTag-GFP-Mito construct; test: Chloroalkane Penetration Assay (CAPA); type: cell-based
From the text: Cell-based assays such as the Caco-2 assay and Madin–Darby canine kidney cell line (MDCK) permeability assay have been employed to offer a fuller assessment of transport in vitro.[22,23] The chloroalkane penetration assay (CAPA) is a relatively recent methodology for measuring cell penetration in live cells (Fig. 1d).[24] This assay uses cells that express a modified haloalkane dehalogenase known as HaloTag that reacts rapidly, selectively, and irreversibly with small chloroalkane ligands.[25,26] CAPA measures cytosolic penetration by pulsing cells with a chloroalkane-tagged compound (ct-compound), then chasing with a chloroaklane-tagged dye (ct-dye). If the ct-compound penetrates the cell and escapes from endosomes, it reacts with HaloTag and blocks the reaction with the ct-dye in the subsequent chase step. Thus, in CAPA, cell penetration of the ct-molecule is inversely proportional to the signal from the ct-dye retained in the cells. The dose dependence of this signal can be fit to a sigmoidal curve, whose midpoint value (called the CP50) can be compared among ct-compounds as a quantitative comparison of cell penetration.[27,28] CAPA is a cost-effective and high-throughput method for measuring the cell penetration of cyclic peptides and other molecules, and it establishes penetration to the cytosol without interference from material trapped in endosomes. In this work, we use CAPA to investigate the cell penetration of Odz macrocycles.
3 Chloroalkane Penetration Assay (CAPA)
Media was aspirated and cells were
washed with serum-free media.
Lysate stability assays were performed essentially as described. 8 For lysate stability assays, HeLa

[4] = Relative hydrophobicity by reverse-phase HPLC retention time; type: physicochemical; settings: C18 LC-MS, gradient 95%/5% MeCN to 100% MeCN over 15 min; measure of relative lipophilicity
From the text: To provide additional evidence for this hypothesis, we used the retention time on reverse phase HPLC as a measure of the overall relative lipophilicity. […] Overall, the more lipophilic cyclic peptides had more efficient cell penetration than the more hydrophilic ones.

CC[C@H]1C2=NN=C(O2)[C@H](CCCCNC(=O)CCC(=O)NCCOCCOCCCCCCCl)NC(=O)CNC(=O)[C@H](CC(C)C)NC(=O)CNC(=O)[C@@H]2CCCN21 [Compound 5]
−log Pe [1]: >8

CC[C@H]1C2=NN=C(O2)[C@H](Cc2ccccc2)NC(=O)[C@H](CCCCNC(=O)CCC(=O)NCCOCCOCCCCCCCl)NC(=O)[C@H](CC(=O)O)NC(=O)[C@H](CC(=O)O)NC(=O)[C@@H]2CCCN21 [Compound 7]
−log Pe [1]: >8

CC[C@H]1C2=NN=C(O2)[C@H](Cc2ccccc2)NC(=O)CNC(=O)[C@H](CC(C)C)NC(=O)[C@H](CCCCNC(=O)CCC(=O)NCCOCCOCCCCCCCl)NC(=O)[C@@H]2CCCN21 [Compound 3]
−log Pe [1]: 7.84 ± 0.04

CC[C@@H]1N[C@@H](CCCCNC(=O)CCC(=O)NCCOCCOCCCCCCCl)C(=O)NCC(=O)N[C@@H](CC(C)C)C(=O)NCC(=O)N[C@@H](Cc2ccccc2)C2=NN=C1O2 [Compound 4]
−log Pe [1]: 7.85 ± 0.052

CC[C@H]1C2=NN=C(O2)[C@H](Cc2ccccc2)NC(=O)CNC(=O)[C@H](CCCCNC(=O)CCC(=O)NCCOCCOCCCCCCCl)NC(=O)CNC(=O)[C@@H]2CCCN21 [Compound 2]
−log Pe [1]: 7.92 ± 0.07

CC[C@H]1C2=NN=C(O2)[C@H](Cc2ccccc2)NC(=O)[C@H](CCCCNC(=O)CCC(=O)NCCOCCOCCCCCCCl)NC(=O)[C@H](CC(C)C)NC(=O)[C@H](CC(=O)O)NC(=O)[C@@H]2CCCN21 [Compound 6]
−log Pe [1]: >8

NC(=O)N1c2ccccc2C=Cc2ccccc21 [carbamazepine, reference compound]
-Log Papp [1]: 5.7–5.8

CC(C)C[C@@H]1NC(=O)CNC(=O)[C@@H]2CCCN2C(=O)[C@H](C)NC(=O)[C@H](Cc2ccccc2)NC(=O)[C@H](CCCCNC(=O)CCC(=O)NCCOCCOCCCCCCCl)NC1=O [Compound 8] (cyclo(PGLK([Suc-NH(CH2CH2O)2(CH2)6Cl])FA))
intact compound remaining in HeLa lysate ([2]; 4 h): almost no intact macrocycle | remaining at 1 h, 150 μM ([2]; human, cells or culture medium, pH 8): ~50% | cell penetration, fold worse than compound 1 ([3]; CAPA CP50 compared with compound 1): more than 20 fold | CP50 after 30 min incubation ([3]; ct-peptides incubated with cells in Opti-MEM for 30 min prior to chasing with ct-dye): 1.0 µM and 1.0 ± 0.03 µM | CP50 after 4 h incubation ([3]; ct-peptides incubated with cells in Opti-MEM for 4 h prior to chasing with ct-dye): 0.22 µM and 0.22 ± 0.02 µM | −log Pe [1]: >8 | T ret [4]: 7.95 min

Source: publication PMC10989506, “Cell penetration of oxadiazole-containing macrocycles” (RSC Chemical Biology, 2024)
